Target: T1, HasAp (Pseudomonas aeruginosa, UniProt O69756, H32A)
T1 sequence (O69756 1-184 H32A): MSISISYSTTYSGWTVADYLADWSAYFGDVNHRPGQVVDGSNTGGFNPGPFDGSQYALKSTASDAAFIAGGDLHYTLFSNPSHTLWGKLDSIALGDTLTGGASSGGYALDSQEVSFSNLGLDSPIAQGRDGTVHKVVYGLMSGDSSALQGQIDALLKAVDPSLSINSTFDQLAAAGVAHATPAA
Experiment: UV-vis titration
Type: binding

c1c[nH]cn1 [imidazole]
Kd: 4.7 mM
